Laboratory results taken from ChEMBL document CHEMBL1687746, “Impact of sarA on daptomycin susceptibility of Staphylococcus aureus biofilms in vivo” (2009).
Converted amounts (≈) assume the structure as drawn. The source made the active and inactive calls. The rule behind the calls is not given here.

Legend:
[1] = system: Staphylococcus aureus; experiment: Antimicrobial activity against Staphylococcus aureus UAMS-1625 by Etest method; type: functional
[2] = system: Staphylococcus aureus; experiment: Antimicrobial activity against Staphylococcus aureus UAMS-1625 sarA mutant by Etest method; type: functional
[3] = system: Staphylococcus aureus; experiment: Antimicrobial activity against Staphylococcus aureus UAMS-1 by Etest method
[4] = system: Staphylococcus aureus; experiment: Antimicrobial activity against Staphylococcus aureus UAMS-1 sarA mutant by Etest method
[5] = system: Staphylococcus aureus; experiment: Antimicrobial activity against Staphylococcus aureus UAMS-1 assessed as reduction in bacterial load in catheter at >/= 10 ug/ml for 3 days; type: functional, organism-based
[6] = system: Staphylococcus aureus; experiment: Antimicrobial activity against Staphylococcus aureus UAMS-1 assessed as reduction in bacterial load in catheter at 20 ug/ml for 3 days; type: functional, organism-based
[7] = system: Staphylococcus aureus; experiment: Antimicrobial activity against Staphylococcus aureus UAMS-1625 reduction in bacterial load in catheter at 20 ug/ml for 3 days; type: functional, organism-based
[8] = system: Staphylococcus aureus; experiment: Antimicrobial activity against Staphylococcus aureus UAMS-1 assessed as bacterial load in catheter at 20 times MIC; type: functional
[9] = system: Staphylococcus aureus; experiment: Antimicrobial activity against Staphylococcus aureus UAMS-1625 assessed as bacterial load in catheter at 10 times MIC; type: functional
[10] = system: Staphylococcus aureus; experiment: Antimicrobial activity against Staphylococcus aureus UAMS-929 assessed as bacterial load in catheter at 20 times MIC; type: functional
[11] = system: Staphylococcus aureus; experiment: Antimicrobial activity against Staphylococcus aureus UAMS-1653 assessed as bacterial load in catheter at 10 times MIC; type: functional

CCCCCCCCCC(=O)N[C@@H](Cc1c[nH]c2ccccc12)C(=O)N[C@H](CC(N)=O)C(=O)N[C@@H](CC(=O)O)C(=O)N[C@@H]1C(=O)NCC(=O)N[C@@H](CCCN)C(=O)N[C@@H](CC(=O)O)C(=O)N[C@H](C)C(=O)N[C@@H](CC(=O)O)C(=O)NCC(=O)N[C@H](CO)C(=O)N[C@@H]([C@H](C)CC(=O)O)C(=O)N[C@@H](CC(=O)c2ccccc2N)C(=O)O[C@@H]1C
MIC [1]: 0.38 µg/mL (≈ 0.234 µM)
MIC [2]: 0.38 µg/mL (≈ 0.234 µM)
MIC [3]: 0.5 µg/mL (≈ 0.309 µM)
MIC [4]: 0.5 µg/mL (≈ 0.309 µM)
Activity [5]: Active
Activity [6]: inactive
Activity [7]: Active
Activity [8]: 6.7%
Activity [9]: 6.3%
Activity [10]: 46.4%
Activity [11]: 69%
